Source: the supplement of paper PMC10307832

Tests used:
Assay in all cases: relative viability (nuclei count vs DMSO), 5 days (fraction); higher = more cells survive
AZD5582 + Olaparib = compound: C[C@@H](C(=O)N[C@@H](C1CCCCC1)C(=O)N2CCC[C@H]2C(=O)N[C@@H]3[C@@H](CC4=CC=CC=C34)OCC#CC#CCO[C@@H]5CC6=CC=CC=C6[C@@H]5NC(=O)[C@@H]7CCCN7C(=O)[C@H](C8CCCCC8)NC(=O)[C@H](C)NC)NC [AZD5582] + O=C(c1cc(Cc2n[nH]c(=O)c3ccccc23)ccc1F)N1CCN(C(=O)C2CC2)CC1 [Olaparib] (partner 8 µM)
How it was run: (§1)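 Each reported value is a median over duplicate plates. It expresses relative viability: treated-well nuclei count divided by vehicle-well nuclei count. Lung cancer cell lines in 1536-well plates were dosed by pin tool a day after seeding, alone with one drug or with a fixed anchor-drug dose plus five library-drug doses (not always all listed) in √10 steps, and nuclei were counted after 5 days.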

[1] = compound: Cn1nnc2c(C(N)=O)ncn2c1=O [Temozolomide] + Cc1cc(Nc2cc(N3CCN(C)CC3)nc(Sc3ccc(NC(=O)C4CC4)cc3)n2)n[nH]1 [Tozasertib] (partner 0.1 µM)
How it was run: as §1

[2] = compound: Cn1nnc2c(C(N)=O)ncn2c1=O [Temozolomide] + Nc1ncn([C@H]2C[C@H](O)[C@@H](CO)O2)c(=O)n1 [Decitabine] (partner 2 µM)
How it was run: as §1

AZD5582 + Lapatinib = compound: C[C@@H](C(=O)N[C@@H](C1CCCCC1)C(=O)N2CCC[C@H]2C(=O)N[C@@H]3[C@@H](CC4=CC=CC=C34)OCC#CC#CCO[C@@H]5CC6=CC=CC=C6[C@@H]5NC(=O)[C@@H]7CCCN7C(=O)[C@H](C8CCCCC8)NC(=O)[C@H](C)NC)NC [AZD5582] + CS(=O)(=O)CCNCc1ccc(-c2ccc3ncnc(Nc4ccc(OCc5cccc(F)c5)c(Cl)c4)c3c2)o1 [Lapatinib] (partner 2 µM)
How it was run: as §1

Row | Cell Line | relative viability (AZD5582 + Olaparib; first compound 0.001581 µM) | relative viability (AZD5582 + Olaparib; first compound 0.005 µM) | relative viability (AZD5582 + Olaparib; first compound 0.01581 µM) | relative viability (AZD5582 + Olaparib; first compound 0.05 µM) | relative viability ([1]; first compound 0.2 µM) | relative viability ([1]; first compound 0.6325 µM) | relative viability ([1]; first compound 2 µM) | relative viability ([1]; first compound 6.325 µM) | relative viability ([1]; first compound 20 µM) | relative viability ([2]; first compound 0.2 µM) | relative viability ([2]; first compound 0.6325 µM) | relative viability ([2]; first compound 2 µM) | relative viability ([2]; first compound 6.325 µM) | relative viability ([2]; first compound 20 µM) | relative viability (AZD5582 + Lapatinib; first compound 0.001581 µM) | relative viability (AZD5582 + Lapatinib; first compound 0.005 µM) | relative viability (AZD5582 + Lapatinib; first compound 0.01581 µM) | relative viability (AZD5582 + Lapatinib; first compound 0.05 µM)
1 | LCLC-103H | 0.806 | 0.836 | 0.714 | 0.862 | 0.486 | 0.481 | 0.566 | 0.456 | 0.413 | 0.779 | 0.757 | 0.743 | 0.764 | 0.599 | – | – | – | –
2 | NCI-H441 | 0.504 | 0.541 | 0.603 | 0.395 | 0.691 | 0.775 | 0.785 | 0.62 | 0.611 | 0.255 | 0.279 | 0.226 | 0.278 | 0.254 | – | – | – | –
3 | NCI-H522 | 0.554 | 0.628 | 0.641 | 0.674 | 0.449 | 0.586 | 0.56 | 0.538 | 0.595 | 0.591 | 0.623 | 0.747 | 0.608 | 0.59 | – | – | – | –
4 | NCI-H1299 | 0.943 | 0.965 | 0.963 | 0.931 | – | – | – | – | – | – | – | – | – | – | 0.846 | 0.883 | 0.971 | 0.812
5 | NCI-H1563 | – | – | – | – | – | – | – | – | – | – | – | – | – | – | 0.909 | 1.15 | 0.788 | 1.64
6 | NCI-H1623 | – | – | – | – | – | 0.421 | 0.365 | 0.475 | 0.293 | – | – | – | – | – | – | – | – | –
7 | NCI-H1648 | 0.65 | 0.735 | – | 0.672 | – | 0.525 | 0.397 | 0.448 | 0.435 | – | 0.469 | 0.459 | 0.336 | 0.37 | – | – | – | –
8 | NCI-H1792 | 0.343 | 0.466 | 0.337 | 0.409 | – | – | – | – | – | 0.434 | 0.599 | 0.407 | 0.549 | 0.54 | 0.862 | 0.935 | 0.798 | 1.01
9 | NCI-H2228 | 0.629 | 0.61 | 0.618 | 0.333 | 0.246 | 0.322 | 0.206 | 0.212 | 0.251 | – | – | – | – | – | 0.614 | 0.739 | 1.05 | 0.34
10 | NCI-H2342 | 0.325 | 0.361 | 0.463 | 0.438 | 0.49 | 0.57 | 0.492 | 0.598 | 0.346 | 0.737 | 0.771 | 0.666 | 0.676 | 0.803 | – | – | – | –
11 | SW 900 | 0.667 | 0.656 | 0.79 | 0.495 | 0.63 | 0.703 | 0.498 | 0.542 | 0.462 | 0.428 | 0.427 | 0.453 | 0.511 | 0.427 | – | – | – | –
